Key:
Assay type in all cases: in vivo
Kochia (Kochia scoparia) [1] = assay: Test A preemergence; settings: Preemergence; for Plant response rating, Kochia: 125 g ai/ha, visual injury after approximately 10 d, 0 to 100 scale where 0 is no effect and 100 is complete control; for Kochia plant response rating (0 to 100 scale, 0 is no effect, 100 is complete control): 500 g ai/ha, visual injury approx. 10 d
Method in brief: (§1)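 Each rating is a visual injury score from 0 to 100 given about 10 d after treatment, judged against untreated controls kept alongside in the greenhouse. In loam soil–sand blend, seeds got a preemergence directed soil spray, while postemergence plants were 2 to 10 cm tall at spraying.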

[2] = system: barnyardgrass (Echinochloa crus-galli); assay: Test A preemergence; settings: Preemergence; for Plant response rating, Barnyardgrass: 125 g ai/ha, visual injury after approximately 10 d, 0 to 100 scale where 0 is no effect and 100 is complete control; for Barnyardgrass plant response rating (0 to 100 scale, 0 is no effect, 100 is complete control): 500 g ai/ha, visual injury approx. 10 d
Method in brief: as §1

[3] = system: giant foxtail (Setaria faberii); assay: Test A preemergence; settings: Preemergence; for Plant response rating, Foxtail, Giant: 125 g ai/ha, visual injury after approximately 10 d, 0 to 100 scale where 0 is no effect and 100 is complete control; for Foxtail, Giant plant response rating (0 to 100 scale, 0 is no effect, 100 is complete control): 500 g ai/ha, visual injury approx. 10 d
Method in brief: as §1

[4] = system: pigweed (Amaranthus retroflexus); assay: Test A preemergence; settings: Preemergence; for Plant response rating, Pigweed: 125 g ai/ha, visual injury after approximately 10 d, 0 to 100 scale where 0 is no effect and 100 is complete control; for Pigweed plant response rating (0 to 100 scale, 0 is no effect, 100 is complete control): 500 g ai/ha, visual injury approx. 10 d
[5] = system: ragweed (common ragweed, Ambrosia elatior); assay: Test A preemergence; settings: Preemergence; for Plant response rating, Ragweed: 125 g ai/ha, visual injury after approximately 10 d, 0 to 100 scale where 0 is no effect and 100 is complete control; for Ragweed plant response rating (0 to 100 scale, 0 is no effect, 100 is complete control): 500 g ai/ha, visual injury approx. 10 d
Method in brief: as §1

[6] = system: ryegrass, Italian (Italian ryegrass, Lolium multiflorum); assay: Test A preemergence; settings: Preemergence; for Plant response rating, Ryegrass, Italian: 125 g ai/ha, visual injury after approximately 10 d, 0 to 100 scale where 0 is no effect and 100 is complete control; for Ryegrass, Italian plant response rating (0 to 100 scale, 0 is no effect, 100 is complete control): 500 g ai/ha, visual injury approx. 10 d
Method in brief: as §1

[7] = system: Galium (catchweed bedstraw, Galium aparine); assay: Test A postemergence; settings: for Galium plant response rating: visual injury rating on 0 to 100 scale (0 no effect, 100 complete control), approx. 10 d
Method in brief: as §1

Kochia (Kochia scoparia) [8] = assay: Test A postemergence; settings: for Kochia plant response rating: visual injury rating on 0 to 100 scale (0 no effect, 100 complete control), approx. 10 d
Method in brief: as §1

[9] = system: barnyardgrass (Echinochloa crus-galli); assay: Test A postemergence; settings: for Barnyardgrass plant response rating: visual injury rating on 0 to 100 scale (0 no effect, 100 complete control), approx. 10 d
Method in brief: as §1

[10] = system: blackgrass (Alopecurus myosuroides); assay: Test A postemergence; settings: for Blackgrass plant response rating: visual injury rating on 0 to 100 scale (0 no effect, 100 complete control), approx. 10 d
Method in brief: as §1

corn (Zea mays) = assay: Test A postemergence; settings: for Corn plant response rating: visual injury rating on 0 to 100 scale (0 no effect, 100 complete control), approx. 10 d
Method in brief: as §1

[11] = system: giant foxtail (Setaria faberii); assay: Test A postemergence; settings: for Foxtail, Giant plant response rating: visual injury rating on 0 to 100 scale (0 no effect, 100 complete control), approx. 10 d
Method in brief: as §1

[12] = system: pigweed (Amaranthus retroflexus); assay: Test A postemergence; settings: for Pigweed plant response rating: visual injury rating on 0 to 100 scale (0 no effect, 100 complete control), approx. 10 d
Method in brief: as §1

[13] = system: ragweed (common ragweed, Ambrosia elatior); assay: Test A postemergence; settings: for Ragweed plant response rating: visual injury rating on 0 to 100 scale (0 no effect, 100 complete control), approx. 10 d
Method in brief: as §1

[14] = system: ryegrass, Italian (Italian ryegrass, Lolium multiflorum); assay: Test A postemergence; settings: for Ryegrass, Italian plant response rating: visual injury rating on 0 to 100 scale (0 no effect, 100 complete control), approx. 10 d
Method in brief: as §1

[15] = system: wheat (Triticum aestivum); assay: Test A postemergence; settings: for Wheat plant response rating: visual injury rating on 0 to 100 scale (0 no effect, 100 complete control), approx. 10 d
Method in brief: as §1

[16] = system: barnyardgrass (Echinochloa crus-galli); assay: Test B flooded paddy test; settings: Flood, 250 g ai/ha; 0 to 100 scale where 0 is no effect and 100 is complete control; 13 to 15 d
Method in brief: (§2)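 Visual ratings (0 none to 100 complete control) are relative to untreated plants, taken 13–15 d after treatment in a greenhouse. Test material went straight into floodwater standing 3 cm above the soil, kept constant, on plants at the 2-leaf stage.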

[17] = system: ducksalad (Heteranthera limosa); assay: Test B flooded paddy test; settings: Flood, 250 g ai/ha; 0 to 100 scale where 0 is no effect and 100 is complete control; 13 to 15 d
Method in brief: as §2

rice (Oryra sativa) = assay: Test B flooded paddy test; settings: Flood, 250 g ai/ha; 0 to 100 scale where 0 is no effect and 100 is complete control; 13 to 15 d
Method in brief: as §2

[18] = system: sedge, umbrella (small-flower umbrella sedge, Cyperus difformis); assay: Test B flooded paddy test; settings: Flood, 250 g ai/ha; 0 to 100 scale where 0 is no effect and 100 is complete control; 13 to 15 d
Method in brief: as §2

[19] = Postemergence, 500 g ai/ha, 0 to 100 scale where 0 is no effect and 100 is complete control
[20] = 125 g ai/ha, postemergence, visual rating after approx. 10 d, 0 to 100 scale (0 no effect, 100 complete control)

| Structure (SMILES) | Plant response rating, Kochia (Kochia (Kochia scoparia) [1]) | Kochia plant response rating (0 to 100 scale, 0 is no effect, 100 is complete control) (Kochia (Kochia scoparia) [1]) | Plant response rating, Barnyardgrass [2] | Barnyardgrass plant response rating (0 to 100 scale, 0 is no effect, 100 is complete control) [2] | Plant response rating, Foxtail, Giant [3] | Foxtail, Giant plant response rating (0 to 100 scale, 0 is no effect, 100 is complete control) [3] | Plant response rating, Pigweed [4] | Pigweed plant response rating (0 to 100 scale, 0 is no effect, 100 is complete control) [4] | Plant response rating, Ragweed [5] | Ragweed plant response rating (0 to 100 scale, 0 is no effect, 100 is complete control) [5] | Plant response rating, Ryegrass, Italian [6] | Ryegrass, Italian plant response rating (0 to 100 scale, 0 is no effect, 100 is complete control) [6] | Plant response rating, Galium [7, 19] | Plant response rating, Kochia (Kochia (Kochia scoparia) [8]; [19]) | Plant response rating, Barnyardgrass [9, 19] | Plant response rating, Blackgrass [10, 19] | Plant response rating, Corn (corn (Zea mays); [19]) | Plant response rating, Foxtail, Giant [11, 19] | Plant response rating, Pigweed [12, 19] | Plant response rating, Ragweed [13, 19] | other results |
| --- | --- | --- | --- | --- | --- | --- | --- | --- | --- | --- | --- | --- | --- | --- | --- | --- | --- | --- | --- | --- | --- |
| O=C1NCC(c2cc(F)cc(C(F)(F)F)c2)C1C(=O)Nc1ccc(F)cc1F (stereo not drawn) [Compound 490] | 0 | 20 | 80 | 90 | 90 | 90 | 0 | 0 | 0 | 0 | 20 | 50 | 40 | 20 | 80 | 40 | 80 | 80 | 20 | 20 | Galium plant response rating ([7]; 125 g ai/ha, postemergence): 20; Kochia plant response rating (Kochia (Kochia scoparia) [8]; 125 g ai/ha, postemergence): 0; Barnyardgrass plant response rating ([9]; 125 g ai/ha, postemergence): 80; Blackgrass plant response rating ([10]; 125 g ai/ha, postemergence): 20; Corn plant response rating (corn (Zea mays); 125 g ai/ha, postemergence): 80; Foxtail, Giant plant response rating ([11]; 125 g ai/ha, postemergence): 80; Pigweed plant response rating ([12]; 125 g ai/ha, postemergence): 0; Ragweed plant response rating ([13]; 125 g ai/ha, postemergence): 0; Ryegrass, Italian plant response rating ([14]; 125 g ai/ha, postemergence): 0; Plant response rating, Ryegrass, Italian [14, 19]: 30; Wheat plant response rating ([15]; 125 g ai/ha, postemergence): 30; Plant response rating, Wheat [15, 19]: 50; Plant response rating, Barnyardgrass [16]: 50; Plant response rating, Ducksalad [17]: 85; Plant response rating, Rice (rice (Oryra sativa)): 30; Plant response rating, Sedge, Umbrella [18]: 0 |
| CN1CC(c2cccc(Br)c2)C(C(=O)Nc2cccc(F)c2F)C1=O (stereo not drawn) [Compound 520] | 50 | 70 | 90 | 90 | 90 | 90 | 30 | 80 | 0 | 50 | 30 | 50 | 60 | 70 | 90 | 70 | 70 | 80 | 50 | 30 | Galium plant response rating ([7]; 125 g ai/ha, postemergence): 60; Kochia plant response rating (Kochia (Kochia scoparia) [8]; 125 g ai/ha, postemergence): 60; Barnyardgrass plant response rating ([9]; 125 g ai/ha, postemergence): 90; Blackgrass plant response rating ([10]; 125 g ai/ha, postemergence): 70; Corn plant response rating (corn (Zea mays); 125 g ai/ha, postemergence): 60; Foxtail, Giant plant response rating ([11]; 125 g ai/ha, postemergence): 80; Pigweed plant response rating ([12]; 125 g ai/ha, postemergence): 40; Ragweed plant response rating ([13]; 125 g ai/ha, postemergence): 30; Ryegrass, Italian plant response rating ([14]; 125 g ai/ha, postemergence): 40; Plant response rating, Ryegrass, Italian [14, 19]: 80; Wheat plant response rating ([15]; 125 g ai/ha, postemergence): 50; Plant response rating, Wheat [15, 19]: 70; Plant response rating, Barnyardgrass [16]: 65; Plant response rating, Ducksalad [17]: 100; Plant response rating, Rice (rice (Oryra sativa)): 0; Plant response rating, Sedge, Umbrella [18]: 0 |
| O=C1NCC(c2ccsc2Cl)C1C(=O)Nc1ccccc1F (stereo not drawn) [Compound 599] | 0 | 0 | 0 | 30 | 0 | 0 | 0 | 0 | 0 | 0 | 0 | 0 | 0 | 0 | 20 | 0 | 0 | 0 | 0 | 0 | Plant response rating, Galium [7, 20]: 0; Plant response rating, Kochia (Kochia (Kochia scoparia) [8]; [20]): 0; Plant response rating, Barnyardgrass [9, 20]: 0; Plant response rating, Blackgrass [10, 20]: 0; Plant response rating, Corn (corn (Zea mays); [20]): 0; Plant response rating, Foxtail, Giant [11, 20]: 0; Plant response rating, Pigweed [12, 20]: 0; Plant response rating, Ragweed [13, 20]: 0; Plant response rating, Ryegrass, Italian [14, 20]: 0; Plant response rating, Ryegrass, Italian [14, 19]: 0; Plant response rating, Wheat [15, 20]: 0; Plant response rating, Wheat [15, 19]: 0; Plant response rating, Barnyardgrass [16]: 0; Plant response rating, Ducksalad [17]: 50; Plant response rating, Rice (rice (Oryra sativa)): 0; Plant response rating, Sedge, Umbrella [18]: 0 |

From patent publication US12077503B2, “Substituted cyclic amides and their use as herbicides” (FMC CORPORATION, priority 2015, dated 2024)
